As usually defined, the Ki is the dissociation constant of the complex between target and ligand, obtained from inhibition or displacement.

Structures are written as SMILES.

From US12208088B2 (Genentech, Inc., priority 2018, dated 2025) come the findings set out here.

Chain of HPK1 (Q92918 1-346 limits assumed): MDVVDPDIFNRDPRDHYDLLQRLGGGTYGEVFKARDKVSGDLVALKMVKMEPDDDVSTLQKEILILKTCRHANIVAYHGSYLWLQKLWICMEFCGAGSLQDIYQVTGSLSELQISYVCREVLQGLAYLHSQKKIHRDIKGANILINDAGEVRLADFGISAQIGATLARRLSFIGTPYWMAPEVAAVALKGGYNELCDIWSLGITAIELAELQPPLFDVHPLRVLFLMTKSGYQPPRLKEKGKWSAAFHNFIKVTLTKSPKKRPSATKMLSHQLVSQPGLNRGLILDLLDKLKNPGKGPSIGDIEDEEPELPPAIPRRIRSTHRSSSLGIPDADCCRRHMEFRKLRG

The assay addresses HPK1 (Homo sapiens (Human), UniProt Q92918). As to the kind of experiment: HPK1 Lantha binding assay ("Lanth"). The following applies: binding assays; Morrison Ki fit. The method in brief: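 TR-FRET binding competition using 2 nM HPK1, 2 nM Eu-anti-GST antibody and 15 nM Tracer222 at 23 °C. Compound was incubated 1 h with enzyme and antibody, then 1 h after tracer addition, with an 11-point 5-fold dilution series. Ki obtained from a Morrison fit that corrects for tracer concentration and Kd.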
Turning to `CN(CC#N)C(=O)C1(c2cccc(-c3cnc4c(c3Cl)C3(CC=CC3)CN4)c2)CC1` [Compound 270, 1-(3-(4′-Chloro-1′,2′-dihydrospiro[cyclopentane-1,3′-pyrrolo[2,3-b]pyridin]-3-en-5′-yl)phenyl)-N-(cyanomethyl)-N-methylcyclopropane-1-carboxamide], the affinity corresponds to a Ki of 331 nM. Turning to `CN(C)C(=O)c1c(N)ccc(-c2cnc3c(c2Cl)[C@]2(CC[C@@H](S(C)(=O)=O)CC2)CN3)c1F` [Compound 273a, 6-Amino-3-((1r,4r)-4′-chloro-4-(methylsulfonyl)-1′,2′-dihydrospiro[cyclohexane-1,3′-pyrrolo[2,3-b]pyridin]-5′-yl)-2-fluoro-N,N-dimethylbenzamide], the affinity corresponds to a Ki of 44.8 nM. To `Clc1c(-c2ccc3[nH]nnc3c2)cnc2c1C1(CC=CC1)CN2` [Compound 276, 5′-(1H-Benzo[d][1,2,3]triazol-5-yl)-4′-chloro-1′,2′-dihydrospiro[cyclopentane-1,3′-pyrrolo[2,3-b]pyridin]-3-ene] belongs 252 nM; to `O=C1OCc2ccc(-c3cnc4c(c3)C3(CC3)CN4)cc21` [Compound 277, 6-(1′,2′-dihydrospiro[cyclopropane-1,3′-pyrrolo[2,3-b]pyridin]-5′-yl)isobenzofuran-1(3H)-one], 342 nM.

Consider `CCC1(O)C(=O)Nc2ccc(-c3cnc4c(c3)C3(CC3)CN4)cc21` (stereo not drawn) [Compound 278, 5-(1′,2′-dihydrospiro[cyclopropane-1,3′-pyrrolo[2,3-b]pyridin]-5′-yl)-3-ethyl-3-hydroxyindolin-2-one], for which the affinity corresponds to a Ki of 281 nM.

The compound `CC1(C#N)C(=O)Nc2ccc(-c3cnc4c(c3)C3(CC3)CN4)cc21` (stereo not drawn) [Compound 279, 5-(1′,2′-dihydrospiro[cyclopropane-1,3′-pyrrolo[2,3-b]pyridin]-5′-yl)-3-methyl-2-oxoindoline-3-carbonitrile] yielded a Ki of 41.8 nM. `O=C1Nc2ccc(-c3cnc4c(c3Cl)C3(CC3)CN4)cc2C1(O)C1CC1` (stereo not drawn) [Compound 280, 5-(4′-chloro-1′,2′-dihydrospiro[cyclopropane-1,3′-pyrrolo[2,3-b]pyridin]-5′-yl)-3-cyclopropyl-3-hydroxyindolin-2-one]: the Ki was 179 nM. `CC1(C(N)=O)C(=O)Nc2ccc(-c3cnc4c(c3Cl)C3(CC3)CN4)cc21` (stereo not drawn) [Compound 281, 5-(4′-chloro-1′,2′-dihydrospiro[cyclopropane-1,3′-pyrrolo[2,3-b]pyridin]-5′-yl)-3-methyl-2-oxoindoline-3-carboxamide] gave an inhibition constant Ki of 144 nM. Consider `CC1(C#N)C(=O)Nc2ccc(-c3cnc4c(c3Cl)C3(CC3)CN4)cc21` (stereo not drawn) [Compound 282, 5-(4′-chloro-1′,2′-dihydrospiro[cyclopropane-1,3′-pyrrolo[2,3-b]pyridin]-5′-yl)-3-methyl-2-oxoindoline-3-carbonitrile], for which the affinity, expressed as Ki, was 217 nM. Turning to `Clc1c(-c2cccc3[nH]ccc23)cnc2c1C1(CC=CC1)CN2` [Compound 284, 4-Chloro-5′-(1H-indol-4-yl)-1′,2′-dihydrospiro[cyclopentane-1,3′-pyrrolo[2,3-b]pyridin]-3-ene], the affinity corresponds to a Ki of 629 nM. The compound `Clc1c(-c2ccc3[nH]ncc3c2)cnc2c1C1(CC=CC1)CN2` [Compound 285, 4-Chloro-5′-(1H-indazol-5-yl)-1′,2′-dihydrospiro[cyclopentane-1,3′-pyrrolo[2,3-b]pyridin]-3-ene] showed a Ki of 375 nM.

`Clc1c(-c2cccc3[nH]ncc23)cnc2c1C1(CC=CC1)CN2` [Compound 286, 4-Chloro-5′-(1H-indazol-4-yl)-1′,2′-dihydrospiro[cyclopentane-1,3′-pyrrolo[2,3-b]pyridin]-3-ene]: the affinity corresponds to a Ki of 120 nM. As to `Clc1c(-c2ccc3[nH]ccc3c2)cnc2c1C1(CC=CC1)CN2` [Compound 287, 4-Chloro-5′-(1H-indol-5-yl)-1′,2′-dihydrospiro[cyclopentane-1,3′-pyrrolo[2,3-b]pyridin]-3-ene], the affinity, expressed as Ki, was 638 nM. For `CN(C)C(=O)c1nc(-c2cnc3c(c2Cl)[C@]2(CC[C@](C)(C#N)C2)CN3)ccc1N` [Compound 288, 3-Amino-6-((1R,3 S)-4′-chloro-3-cyano-3-methyl-1′,2′-dihydrospiro[cyclopentane-1,3′-pyrrolo[2,3-b]pyridin]-5′-yl)-N,N-dimethylpicolinamide], the Ki amounted to 16 nM.

`Nc1cc(-c2cnc3c(c2)C2(CC2)CN3)nc(N2CCCOC2=O)n1` [Compound 289, 3-(4-amino-6-(1′,2′-dihydrospiro[cyclopropane-1,3′-pyrrolo[2,3-b]pyridin]-5′-yl)pyrimidin-2-yl)-1,3-oxazinan-2-one] yielded a Ki of 215 nM. Turning to `Nc1ccc(-c2cnc3c(c2)C2(CC2)CN3)nc1C(=O)N1CC[C@H](O)C1` [Compound 290a, (S)-(3-amino-6-(1′,2′-dihydrospiro[cyclopropane-1,3′-pyrrolo[2,3-b]pyridin]-5′-yl)pyridin-2-yl)(3-hydroxypyrrolidin-1-yl)methanone], the inhibition constant Ki is 559 nM. This Ki is about 2.6-fold higher than that of the compound before.

`Nc1ccc(-c2cnc3c(c2)C2(CC2)CN3)nc1C(=O)N1CC[C@@H](O)C1` [Compound 290b, (R)-(3-amino-6-(1′,2′-dihydrospiro[cyclopropane-1,3′-pyrrolo[2,3-b]pyridin]-5′-yl)pyridin-2-yl)(3-hydroxypyrrolidin-1-yl)methanone] came in with a Ki of 895 nM. Against the preceding compound, the Ki is about 1.6-fold higher.

In turn, `CN(C)C(=O)CNc1ccc(-c2cnc3c(c2)C2(CC2)CN3)cn1` [Compound 291, 2-((5-(1′,2′-dihydrospiro[cyclopropane-1,3′-pyrrolo[2,3-b]pyridin]-5′-yl)pyridin-2-yl)amino)-N,N-dimethylacetamide] displayed a Ki of 236 nM.

The compound `Nc1cc(-c2cnc3c(c2)C2(CC2)CN3)nc(N2CCOC2=O)c1` [Compound 292, 3-(4-amino-6-(1′,2′-dihydrospiro[cyclopropane-1,3′-pyrrolo[2,3-b]pyridin]-5′-yl)pyridin-2-yl)oxazolidin-2-one] returned a Ki of 127 nM. Compared with the last compound, the Ki is about 1.9-fold lower. The compound `Nc1cc(-c2cnc3c(c2)C2(CC2)CN3)nc(N2CCCOC2=O)c1` [Compound 293, 3-(4-amino-6-(1′,2′-dihydrospiro[cyclopropane-1,3′-pyrrolo[2,3-b]pyridin]-5′-yl)pyridin-2-yl)-1,3-oxazinan-2-one] gave a Ki of 47.4 nM. In the case of `CN(C)C(=O)c1cc(N)cc(-c2cnc3c(c2)C2(CC2)CN3)n1` [Compound 294, 4-amino-6-(1′,2′-dihydrospiro[cyclopropane-1,3′-pyrrolo[2,3-b]pyridin]-5′-yl)-N,N-dimethylpicolinamide], the Ki came to 309 nM.

Take `Nc1cc(-c2cnc3c(c2)C2(CC2)CN3)nc(-c2ncccn2)c1` [Compound 295, 2-(1′,2′-dihydrospiro[cyclopropane-1,3′-pyrrolo[2,3-b]pyridin]-5′-yl)-6-(pyrimidin-2-yl)pyridin-4-amine]: the Ki is 387 nM. The compound `Cn1cccc(-c2cc(-c3cnc4c(c3Cl)C3(CC3)CN4)cc(N)n2)c1=O` [Compound 296, 6-amino-4-(4′-chloro-1′,2′-dihydrospiro[cyclopropane-1,3′-pyrrolo[2,3-b]pyridin]-5′-yl)-1′-methyl-[2,3′-bipyridin]-2′(1′H)-one] showed an inhibition constant (Ki) of 11.4 nM. Regarding `CN(C)C(=O)c1cccc2c(-c3cnc4c(c3)C3(CC3)CN4)c[nH]c12` [Compound 297, 3-(1′,2′-Dihydrospiro[cyclopropane-1,3′-pyrrolo[2,3-b]pyridin]-5′-yl)-N,N-dimethyl-1H-indole-7-carboxamide], the Ki worked out at 57.6 nM.

`CN(C)C(=O)c1cccc2c(-c3cnc4c(c3Cl)C3(CC3)CN4)c[nH]c12` [Compound 298, 3-(4′-Chloro-1′,2′-dihydrospiro[cyclopropane-1,3′-pyrrolo[2,3-b]pyridin]-5′-yl)-N,N-dimethyl-1H-indole-7-carboxamide]: the Ki was determined as 52.3 nM. `O=C1CCCCN1c1cccc2c(-c3cnc4c(c3)C3(CC3)CN4)c[nH]c12` [Compound 299, 1-(3-(1′,2′-Dihydrospiro[cyclopropane-1,3′-pyrrolo[2,3-b]pyridin]-5′-yl)-1H-indol-7-yl)piperidin-2-one]: the affinity corresponds to a Ki of 88.9 nM. Turning to `O=C1CCCCN1c1cccc2c(-c3cnc4c(c3Cl)C3(CCC(O)C3)CN4)c[nH]c12` (stereo not drawn) [Compound 300, 1-(3-(4′-Chloro-3-hydroxy-1′,2′-dihydrospiro[cyclopentane-1,3′-pyrrolo[2,3-b]pyridin]-5′-yl)-1H-indol-7-yl)piperidin-2-one], affinity was put at a Ki of 50.6 nM. The compound `CN(C)C(=O)Cc1cccc2c(-c3cnc4c(c3Cl)C3(CC3)CN4)c[nH]c12` [Compound 301, 2-(3-(4′-Chloro-1′,2′-dihydrospiro[cyclopropane-1,3′-pyrrolo[2,3-b]pyridin]-5′-yl)-1H-indol-7-yl)-N,N-dimethylacetamide] came in with a Ki of 68.2 nM. The Ki values of the last two compounds are within 1.5-fold of each other. To `O=C1COCCN1c1cccc2c(-c3cnc4c(c3Cl)C3(CC3)CN4)c[nH]c12` [Compound 302, 4-(3-(4′-Chloro-1′,2′-dihydrospiro[cyclopropane-1,3′-pyrrolo[2,3-b]pyridin]-5′-yl)-1H-indol-7-yl)morpholin-3-one] belongs 46.3 nM; to `O=C1CNCCN1c1cccc2c(-c3cnc4c(c3)C3(CC3)CN4)c[nH]c12` [Compound 303, 1-(3-(1′,2′-Dihydrospiro[cyclopropane-1,3′-pyrrolo[2,3-b]pyridin]-5′-yl)-1H-indol-7-yl)piperazin-2-one], 32.6 nM; to `N#Cc1ccc2[nH]cc(-c3cnc4c(c3)C3(CC3)CN4)c2c1` [Compound 307, 3-(1′,2′-Dihydrospiro[cyclopropane-1,3′-pyrrolo[2,3-b]pyridin]-5′-yl)-1H-indole-5-carbonitrile], 17.2 nM. `Cc1n[nH]cc1-c1cnc2c(c1Cl)C1(CC=CC1)CN2` [Compound 308, 4′-Chloro-5′-(3-methyl-1H-pyrazol-4-yl)-1′,2′-dihydrospiro[cyclopentane-1,3′-pyrrolo[2,3-b]pyridin]-3-ene] returned a Ki of 186 nM. On to `COc1c(-c2ccc(N)c(C(=O)N(C)C)n2)cnc2c1C1(CC1)CN2` [Compound 309, 3-Amino-6-(4′-methoxy-1′,2′-dihydrospiro[cyclopropane-1,3′-pyrrolo[2,3-b]pyridin]-5′-yl)-N,N-dimethylpicolinamide], for which the Ki was 29 nM.
